According to PubChem BioAssay (NCI):
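The compound was tested at five concentrations on cells cultured in 96-well plates, with a 48-hour exposure period. GI50 = concentration required for 50% inhibition of growth. TGI denotes the concentration required for complete inhibition of growth.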

Columns and labels:
Assay in all cases: NCI anticancer screen, dose series, 48 h
HCT-15 colon = system: HCT-15 colon
MOLT-4 leukemia = system: MOLT-4 leukemia
SK-MEL-5 melanoma = system: SK-MEL-5 melanoma
EKVX NSCLC = system: EKVX NSCLC
RXF 393 renal = system: RXF 393 renal
SF-268 CNS = system: SF-268 CNS
MALME-3M melanoma = system: MALME-3M melanoma
NCI-H522 lung = system: NCI-H522 lung
ACHN renal = system: ACHN renal
SK-MEL-28 melanoma = system: SK-MEL-28 melanoma
K-562 leukemia = system: K-562 leukemia
NCI-H460 lung = system: NCI-H460 lung
UACC-62 melanoma = system: UACC-62 melanoma
RPMI-8226 leukemia = system: RPMI-8226 leukemia
IGROV1 ovarian = system: IGROV1 ovarian
OVCAR-4 ovarian = system: OVCAR-4 ovarian
MDA-N = system: MDA-N
HS 578T breast = system: HS 578T breast

SMILES | TGI (HCT-15 colon) | TGI (MOLT-4 leukemia) | TGI (SK-MEL-5 melanoma) | TGI (EKVX NSCLC) | TGI (RXF 393 renal) | TGI (SF-268 CNS) | TGI (MALME-3M melanoma) | TGI (NCI-H522 lung) | TGI (ACHN renal) | TGI (SK-MEL-28 melanoma) | TGI (K-562 leukemia) | TGI (NCI-H460 lung) | TGI (UACC-62 melanoma) | TGI (RPMI-8226 leukemia) | TGI (IGROV1 ovarian) | TGI (OVCAR-4 ovarian) | TGI (MDA-N) | TGI (HS 578T breast) | GI50 (RXF 393 renal) | GI50 (SF-268 CNS)
COC(=O)c1ccc(Cc2ccc(C(=O)OC)o2)o1 | > 378 µM | > 378 µM | > 378 µM | > 378 µM | > 378 µM | > 378 µM | > 378 µM | > 378 µM | > 378 µM | > 378 µM | > 378 µM | > 378 µM | > 378 µM | > 378 µM | > 378 µM | – | – | – | – | –
CCCCCCCN1C(=O)C(O)(c2ccc(C3(O)C(=O)N(CCCCCCC)c4ccccc43)s2)c2ccccc21 (stereo not drawn) | 4.42 µM | 4.16 µM | 3.26 µM | – | – | 3.97 µM | – | – | 4.92 µM | 3.98 µM | 7.67 µM | 3.49 µM | 4.06 µM | 4.69 µM | 4.28 µM | 3.77 µM | 4.06 µM | 5.31 µM | – | –
COc1cc2c(cc1OC)C(N)CC2=O (stereo not drawn) | > 100 µM | > 100 µM | > 100 µM | > 100 µM | > 100 µM | > 100 µM | – | > 100 µM | > 100 µM | > 100 µM | > 100 µM | – | > 100 µM | > 100 µM | > 100 µM | > 100 µM | – | > 100 µM | – | –
CSc1nc2[nH]c(=O)c(C)nc2c(=O)[nH]1 | > 100 µM | > 100 µM | > 100 µM | > 100 µM | > 100 µM | > 100 µM | > 100 µM | > 100 µM | > 100 µM | > 100 µM | > 100 µM | > 100 µM | > 100 µM | > 100 µM | > 100 µM | > 100 µM | – | – | – | –
Cc1c2c(n(CCN(C)C)c1C)NN=C(C#N)S2(=O)=O | > 100 µM | > 100 µM | – | > 100 µM | – | > 100 µM | > 100 µM | – | > 100 µM | > 100 µM | > 100 µM | > 100 µM | > 100 µM | > 100 µM | > 100 µM | > 100 µM | > 100 µM | > 100 µM | – | –
COc1cc(/C=C2/C(=O)N(C(=O)c3ccc(Cl)cc3)N=C2C)cc(OC)c1OC | > 100 µM | > 100 µM | > 100 µM | > 100 µM | > 100 µM | > 100 µM | > 100 µM | > 100 µM | > 100 µM | > 100 µM | > 100 µM | > 100 µM | > 100 µM | > 100 µM | > 100 µM | > 100 µM | – | – | – | –
COc1cc2c(cc1OC)C(=O)C(C1=C(SC(=N)N)C(=O)c3cc(OC)c(OC)cc31)C2 (stereo not drawn) | > 100 µM | > 100 µM | > 100 µM | > 100 µM | – | > 100 µM | > 100 µM | > 100 µM | > 100 µM | > 100 µM | > 100 µM | > 100 µM | > 100 µM | > 100 µM | > 100 µM | > 100 µM | – | – | – | –
NC(=O)c1[nH]cnc1/N=N/SCC(N)C(=O)O (stereo not drawn) | > 100 µM | – | > 100 µM | > 100 µM | > 100 µM | > 100 µM | > 100 µM | > 100 µM | > 100 µM | > 100 µM | > 100 µM | > 100 µM | > 100 µM | > 100 µM | > 100 µM | > 100 µM | – | > 100 µM | – | –
[N-]=[N+]=NC(CBr)c1cn([C@H]2C[C@H](O)[C@@H](CO)O2)c(=O)[nH]c1=O (stereo partly drawn) | > 100 µM | > 100 µM | > 100 µM | > 100 µM | > 100 µM | – | > 100 µM | > 100 µM | > 100 µM | > 100 µM | > 100 µM | > 100 µM | > 100 µM | > 100 µM | > 100 µM | – | – | – | – | –
O=C(O)CCCOc1cc(-c2ccccc2F)nc2cc3c(cc12)OCO3 | > 100 µM | 71.3 µM | > 100 µM | > 100 µM | > 100 µM | > 100 µM | > 100 µM | – | – | > 100 µM | – | – | > 100 µM | > 100 µM | 15.8 µM | > 100 µM | 4.45 µM | – | 7.68 µM | 16.3 µM
CCOC(=O)c1ccc(-n2c(SCC)nc3sc(C)c(C)c3c2=O)cc1 | > 100 µM | – | > 100 µM | > 100 µM | > 100 µM | > 100 µM | > 100 µM | > 100 µM | > 100 µM | > 100 µM | > 100 µM | > 100 µM | > 100 µM | > 100 µM | > 100 µM | > 100 µM | – | – | – | –
Cn1c2cc(O)cc(O)c2c(=O)c2c([N+](=O)[O-])cccc21 | > 100 µM | > 100 µM | > 100 µM | > 100 µM | > 100 µM | > 100 µM | > 100 µM | > 100 µM | > 100 µM | > 100 µM | > 100 µM | > 100 µM | > 100 µM | > 100 µM | > 100 µM | > 100 µM | – | – | – | –
O=c1cc(-c2ccccc2)oc2cc(OCCSCCCCCCCCCCSCCOc3ccc4c(=O)cc(-c5ccccc5)oc4c3)ccc12 | > 100 µM | > 100 µM | > 100 µM | > 100 µM | > 100 µM | > 100 µM | > 100 µM | > 100 µM | > 100 µM | > 100 µM | > 100 µM | – | > 100 µM | > 100 µM | > 100 µM | – | – | – | – | –
COC(=O)[C@@]12OC[C@]34C([C@@H](O)C1O)[C@@]1(C)CC(=O)C(OC(=O)/C=C(/c5ccccc5)C(F)(F)F)=C(C)C1C[C@H]3OC(=O)[C@H](O)[C@H]42 (stereo partly drawn) | > 50 µM | 26.9 µM | 31.4 µM | > 50 µM | 45.6 µM | > 50 µM | 28.9 µM | 24.5 µM | > 50 µM | 27 µM | > 50 µM | 23 µM | 11.7 µM | 13.9 µM | 21.2 µM | > 50 µM | – | – | – | –
COc1cc([C@@H]2c3cc4c(cc3[C@@H](NC(=O)c3cccc(F)c3)C3COC(=O)[C@@H]32)OCO4)cc(OC)c1O (stereo partly drawn) | 7.09 µM | 1.06 µM | 12.7 µM | 7.49 µM | 37.5 µM | > 100 µM | 7.83 µM | 3.97 µM | 1.85 µM | 56.5 µM | > 100 µM | 7.52 µM | 3.7 µM | 5.85 µM | 10.6 µM | > 100 µM | – | – | – | –
